Data on six compounds can be found in PMC11391413 (Chemical Science, 2024).

Experiment [1] has as its target T1, full-length GRB2, KD1 (NSH3) (Homo sapiens, UniProt P62993).
T1 construct: further corroborated by our ITC analysis of the full-length GRB2; His6 (N, cleaved yes); TEV protease cleavage site (N, cleaved yes); made in house; host or cells: Escherichia coli BL21 (DE3) pLysS
In words: ITC of full-length GRB2 with SOS1 PRMs, KD1. It is filed as binding.
Protocol: The calculations were performed using only residues showing the maximum CSPs over 0.03 ppm. […] Based on the assumption of non-interference between the two binding sites from the NMR titration experiments, we also employed a two-site independent model in the ITC analysis, referred to as the ‘Two Set of Sites’ model in MicroCal ITC-ORIGIN Analysis Software (Malvern Panalytical).
The ITC experiments were carried out at 25 °C on a MicroCal Auto-iTC 200 instrument (Malvern Panalytical) with the following experimental parameters: 20 injections per experiment; 2 μL injection volume, except that the first injection of 0.4 μL to be discarded at the analysis; 150 s waiting period between the injections; stirring at 750 rpm; 5 μcal s^−1 reference power. […] Each binding experiment was accompanied by a corresponding reference experiment exclusively with the sodium phosphate buffer and ultrapure water. Each parameter was determined by analyzing row ITC data with the model, Two Set of Sites, using MicroCal ITC-ORIGIN Analysis Software (Malvern Panalytical).

The target in experiment [2] is NSH3 domain of full-length GRB2 (Homo sapiens, UniProt P62993). In words: NMR titration (1H-15N HSQC chemical shift perturbation) of 15N-labelled full-length GRB2 with SOS1 PRMs, KD1. The conditions noted are these: read-out: K D (μM) from full-length GRB2, K D1 (NSH3), global fit of residues with maximum CSPs over 0.03 ppm, independent two-site binding model, GRB2 approx. 200 to 270 μM, 20 mM sodium phosphate, 25 °C, bootstrap 1000 iterations.
NSH3 domain of full-length GRB2, sequence (P62993 whole entry, the tested form may be a part): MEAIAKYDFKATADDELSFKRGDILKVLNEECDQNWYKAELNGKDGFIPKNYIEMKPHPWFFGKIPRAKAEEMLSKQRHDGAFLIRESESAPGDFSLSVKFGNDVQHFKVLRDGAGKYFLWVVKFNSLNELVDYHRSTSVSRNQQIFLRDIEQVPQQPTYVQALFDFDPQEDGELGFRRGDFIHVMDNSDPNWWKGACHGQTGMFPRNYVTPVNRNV
Protocol: Models with two binding sites basically require a total of four dissociation constants (KD1–KD4). The two-site independent binding model equates KD3 and KD4 with KD2 and KD1, respectively. In contrast, the two-site cooperative binding model (two-site dependent model) differentiates the four dissociation constants, with the assumption that KD3 is modulated by another ligand binding to KD2, as a function of KD2 and a modulation factor α. KD4 is then calculated from KD1 and KD2, as shown in the equation provided in the figure (the detailed models and theory are described in Materials and methods). […] The calculations were performed using only residues showing the maximum CSPs over 0.03 ppm.
2D ^1H–^15N HSQC spectra were measured at each titration point. Chemical shift differences, Δ, were analysed by Δ = ((ΔH)^2 + (ΔN/5)^2)^1/2, where ΔH and ΔN are the differences in ppm for the backbone amide ^1H and ^15N chemical shifts between the two conditions. 1 ppm corresponds to 600.13 Hz for ^1H and 60.81 Hz for ^15N.
The dissociation constants for each residue were calculated by non-linear regression analysis with the equation for the single state model:[33] […]
In all models, the non-linear least-squares fitting was performed by the Levenberg–Marquardt algorithm. The precision of the model parameters was assessed by conducting the bootstrap resampling on the residuals of the regression model. […]

No end group written: not given here.

T1 sequence (P62993 whole entry): as the sequence (P62993 whole entry, the tested form may be a part) above

`CC(C)C[C@H](NC(=O)[C@H](CCCCN)NC(=O)[C@@H]1CCCN1)C(=O)N1CCC[C@H]1C(=O)N1CCC[C@H]1C(=O)N[C@@H](CCCCN)C(=O)N[C@H](C(=O)N[C@@H](Cc1ccc(O)cc1)C(=O)N[C@@H](CCCCN)C(=O)N[C@@H](CCCNC(=N)N)C(=O)N[C@@H](CCC(=O)O)C(=O)N[C@@H](Cc1c[nH]cn1)C(=O)O)[C@@H](C)O` [S10]: the Kd in experiment [1] came out at 71.5 ± 24.2 µM; in experiment [2], 483 ± 45.7 µM.
In experiment [1], DSPPAIPPRQPT [S5] returned a Kd of 15.9 ± 1.5 µM.
For ESPPLLPPREPV [S6], the Kd in experiment [1] was found to be 40.1 ± 6.5 µM.
Regarding IAGPPVPPRQST [S9], the Kd in experiment [1] is 35.6 ± 4.2 µM.
The same measure, in the same setting: next, PKPLPRFPKK [S2]: 65.1 ± 23.7 µM.
As to PSPHGTRRHLPSPP [S8], in experiment [1], the Kd came to 123 ± 18.6 µM.
